In patent US7307166B1, “Oxpurine nucleosides and their congeners, and acyl, derivatives thereof, for improvement of hematopoiesis” (Wellstat Therapeutics Corporation, priority 1987, dated 2007):

How the values were obtained:
[1] = tested on: female Balb/C mice; assay: Survival of mice irradiated with Cobalt 60 gamma radiation; type: in vivo, mouse; details: for number of mice surviving 30 days after irradiation over number irradiated: 50 mg/kg i.p. daily 6 days from 24 h after irradiation
[2] = tested on: bone marrow cells; assay: Colony forming units in bone marrow of mice recovering from cyclophosphamide; type: in vivo, mouse
Experimental: Seventy-two Balb/C female mice weighing approximately 20-grams each were given cyclophosphamide (275 mg/kg) by intraperitoneal (i.p.) injection. Twenty-four hours later and each day thereafter, mice received a 0.4 ml i.p. injection of either physiological saline (control) or palmitoylguanosine (2.5 μmoles/mouse/day in 0.2% Tween 80). On days 3, 5, 7, and 10 following CP administration 6 animals from each group were sacrificed by cervical dislocation, and the left femur of each animal obtained by sterile means. The bone marrow cells were then flushed from the femurs with McCoy's 5a Modified medium using a 23-gauge needle. Cells from femurs in the same group were pooled, dispersed by briefly vortexing, and counted using a hemocytometer. Cell suspensions were added to McCoy's Modified 5a medium containing 15% bovine calf serum, 1× Kanamycin, 0.3% agar, and 3% endotoxin-stimulated serum. […] Each group was plated in quintuplicate. After 7 days in culture (at 37° in 5% CO2 and humidified air) aggregates of 50 cells or more (“colonies”) were counted using a dissecting microscope at 25×.

[3] = tested on: Normal Balb/C female mice; assay: Hematopoiesis in normal mice; type: in vivo, mouse
Experimental: Normal, otherwise untreated, female Balb/C mice weighing approximately 20 grams each received a total of 4 or 9 0.4 ml intraperitoneal injections (one per day) of either Tween-80 (0.2%) (controls), palmitoylguanosine ([…]), or palmitoyldeoxyinosine ([…]). Twenty-four hours after the 4th or 9th treatment, groups of 5 or 6 animals from each of the 3 groups were bled and then sacrificed by cervical dislocation. Spleens were removed and weighed, and complete blood cell counts performed.
Normal Balb/C female mice weighing approximately 20 grams each were given a daily 0.4 ml i.p. injection of either physiological saline (controls), palmitoylguanosine (2.6 μmoles/mouse), palmitoyldeoxyguanosine (2.6 μmoles/mouse), monopalmitoylguanosine 2′,3′-acyclic dialcohol (2.6 μmoles/mouse), and palmitoyl-8-bromoguanosine (2.6 μmoles/mouse) for 4 days. On the fifth day all 3 animals in each of the 5 groups were bled and then sacrificed by cervical dislocation. Spleens were removed and weighed, and complete blood cell counts performed. Femoral bone marrow from each mouse was collected and a differential cell count performed on marrow smears.

[4] = tested on: IL-3-dependent bone marrow cells; assay: Apoptosis of IL-3-dependent bone marrow cells deprived of IL-3 (trypan blue exclusion); type: cell-based, mouse; details: 10 micrograms per milliliter
Experimental: Bone marrow cells were obtained by flushing the femurs of three male B6D2F1 mice. The cells were plated at 5.0×10^5/ml in MEM plus 10% fetal calf serum and 25 Units/ml of recombinant IL-3 for 24-48 hours. Non-adherent cells were then separated from adherent cells and maintained for an additional twelve days. IL-3 washed from cells, and cells were plated in MEM plus 10% fetal calf serum in the presence or absence of IL-3 and with or without the addition of palmitoyldeoxyguanosine (10 micrograms per milliliter) or deoxyguanosine (10 micrograms per milliliter). Cells were counted using the trypan blue exclusion method, and the percent of dead cells (trypan blue positive) was determined at 24, 40, 60 and 84 hours following the wash.

[5] = tested on: normal mouse bone marrow cells; assay: Proliferation of bone marrow cells in long-term culture; type: cell-based; details: 10 micrograms per ml
Experimental: Bone marrow cells from the femurs of B6D2F1 mice were used to establish long-term marrow cultures. After four weeks, when the stromal layer was confluent, the culture was treated with microphenolic acid in order to remove all cells from the stroma. New normal bone marrow cells (1×10^5/ml) from the same source were then used to “recharge” the stromal layer. Palmitoyldeoxyguanosine was added to half of the cultures at a concentration of 10 micrograms per ml. […] On days 4 and 7 cells from the culture were removed, washed, and replated in methylcellulose. The number of granulo-monocytic colonies was counted one week later.

[6] = tested on: FDCPmix cells; assay: FDCPmix cell proliferation in the presence of IL-3 (MTT assay); type: cell-based
Experimental: The FDCPmix cell line was used as a suitable in vitro model for predicting the effects of hematopoietic factors on pluripotential stem cells. These cells can be maintained in an undifferentiated state in the presence of IL-3 or undergo multi-lineage development in the presence of specific hematopoietic growth factors.
This level of proliferation (100%) served as the control value. Inhibition of proliferation by test compounds was represented as a percent of control.
FDCPmix cells were plated at a density of 5×10^4 cells per well in 96-well plates (5×10^5/ml) using IMDM medium plus 10% fetal bovine serum. […] Test compounds were added at a decreasing concentrations ranging from 10 micrograms/ml down to 1 nanogram/ml. The test compounds included: 3′,5′-O—N^2-tripalmitoyl-2′-deoxyguanosine, 3′,5′-di-O-palmitoyl-2′-deoxy-guanosine, 3′,5′-O—N^2-trioctanoyl-2′-deoxyguanosine, 3′,5′-di-O-octanoyl-2′-deoxyguanosine, and 3′,5′-o-N^2-trioleyl-2′-deoxy-guanosine.

[7] = tested on: TNF-alpha; assay: LPS-induced serum TNF-alpha (ELISA); type: in vivo, mouse
Experimental: Sixty-three female Balb/C mice were randomly assigned to one of three groups. The animals in one group received a single daily dose of N^2,3′,5′-tripalmitoyldeoxyguanosine (PdG) (25 mg/kg, i.p.), while a second group received a single daily dose of the PdG treatment vehicle (control). The third group was left untreated. On the fourth day 100 μg salmonella typhimurium LPS was administered to all three groups. Serum samples were taken just prior to LPS administration (t=0) and at two, four, six, eight, ten, twelve, sixteen, and twenty hours after LPS administration. The samples were then frozen until the time of assay. Serum levels of TNF-alpha, and IFN-gamma were measured by ELISA.
In the tables below, units for cytokine concentrations are picograms per ml. A value of 0 indicates cytokine levels below the detection limit of the assay (50 to 100 pg/ml).

CCCCCCCCCCCCCCCC(=O)OC[C@H]1O[C@@H](n2cnc3c(=O)[nH]c(N)nc32)[C@H](O)[C@@H]1O
number of mice surviving 30 days after irradiation over number irradiated ([1]; 725 R): 5/5 | number of mice surviving 30 days after irradiation over number irradiated ([1]; 750 R): 5/5 | survival ([1]; pretreatment prior to irradiation): improved survival | colony-forming units per femur ([2]; Day 3 after CP, 2.5 μmoles/mouse/day in 0.2% Tween 80 i.p.): 645 ± 26 | colony-forming units per femur ([2]; Day 5 after CP, 2.5 μmoles/mouse/day): 2327 ± 121 | colony-forming units per femur ([2]; Day 7 after CP, 2.5 μmoles/mouse/day): 1328 ± 140 | colony-forming units per femur ([2]; Day 10 after CP, 2.5 μmoles/mouse/day): 647 ± 25 | spleen weights ([3]; Ex 44: day 5, 2.5 Moles/mouse/day i.p., 4 injections): significantly greater | total leukocyte counts ([3]; Ex 44: day 10, 9 injections): significantly elevated | spleen weight ([3]; Ex 56: fifth day, 2.6 μmoles/mouse i.p. daily 4 days): significantly elevated

CCCCCCCCCCCCCCCC(=O)Nc1nc2c(ncn2[C@H]2C[C@H](OC(=O)CCCCCCCCCCCCCCC)[C@@H](COC(=O)CCCCCCCCCCCCCCC)O2)c(=O)[nH]1 [PdG, 3′,5′-O-N^2-tripalmitoyl-2′-deoxyguanosine]
% Dead Cells ([4]; 40 hr after IL-3 wash): 18.0 ± 3.0 % | % Dead Cells ([4]; 60 hr after IL-3 wash): 16.0 ± 1.5 % | % Dead Cells ([4]; 84 hr after IL-3 wash): 15.3 ± 5.5 % | Cells ([5]; day 1): 1.9 ± .13 10^6/flask | Cells ([5]; day 3): 2.9 ± .10 10^6/flask | CFU-GM/flask ([5]; day 4): 5123 ± 561 | Cells ([5]; day 5): 7.7 ± .2 10^6/flask | CFU-GM/flask ([5]; day 7): 33903 ± 9457 | Cells ([5]; day 7): 4.3 ± .15 10^6/flask | Cell proliferation (% of Control) ([6]; Dose 10 ng): 78 ± 1 % of Control | Cell proliferation (% of Control) ([6]; Dose 39 ng): 76 ± 2 % of Control | Cell proliferation (% of Control) ([6]; Dose 156 ng): 72 ± 3 % of Control | Cell proliferation (% of Control) ([6]; Dose 625 ng): 60 ± 2 % of Control | Cell proliferation (% of Control) ([6]; Dose 2.5 μg): 51 ± .7 % of Control | Cell proliferation (% of Control) ([6]; Dose 10 μg, 48 hours, IL-3 25 units/ml): 51 ± .6 % of Control | serum TNF-alpha ([7]; 0 hr after LPS 100 μg, PdG 25 mg/kg i.p. daily before, 0 = below detection limit): 0 picograms per ml | serum TNF-alpha ([7]; 2 hr after LPS): 1509 ± 86 picograms per ml | serum TNF-alpha ([7]; 4 hr after LPS): 529 ± 141 picograms per ml | serum TNF-alpha ([7]; 6 hr after LPS): 486 ± 63 picograms per ml | Peak TNF-alpha levels vs control groups ([7]; PdG 25 mg/kg i.p.): four-fold lower
